Results on 3 compounds are retold here after paper PMC3177832, “Structure-Based Development of Small Molecule PFKFB3 Inhibitors: A Framework for Potential Cancer Therapeutic Agents Targeting the Warburg Effect” (PLoS ONE, 2011).

For orientation: IC50 means the concentration that inhibits the measured activity by half. Low readings indicate greater potency in that assay, high ones weaker potency in that assay. As usually defined, the Ki is a measure of affinity in units of concentration, obtained from inhibition or displacement. A lower Ki goes with higher affinity. One may read the GI50 as the concentration that inhibits growth by half. The term inhibition denotes the drop in the measured response relative to a control, in per cent. Higher therefore signals strong suppression.

Molecules are shown by their SMILES. Entries after “also recorded” stand apart in the source; their conditions may differ.

In one experiment the target is T1, human PFKFB3 (Homo sapiens, UniProt Q16875).
T1 construct: The structure contains a total of 443 amino acid residues of the full-length protein of 520 residues; 6xHis; made in house; host or cells: Escherichia coli BL21(DE3) pLysS
T1 sequence (Q16875 whole entry): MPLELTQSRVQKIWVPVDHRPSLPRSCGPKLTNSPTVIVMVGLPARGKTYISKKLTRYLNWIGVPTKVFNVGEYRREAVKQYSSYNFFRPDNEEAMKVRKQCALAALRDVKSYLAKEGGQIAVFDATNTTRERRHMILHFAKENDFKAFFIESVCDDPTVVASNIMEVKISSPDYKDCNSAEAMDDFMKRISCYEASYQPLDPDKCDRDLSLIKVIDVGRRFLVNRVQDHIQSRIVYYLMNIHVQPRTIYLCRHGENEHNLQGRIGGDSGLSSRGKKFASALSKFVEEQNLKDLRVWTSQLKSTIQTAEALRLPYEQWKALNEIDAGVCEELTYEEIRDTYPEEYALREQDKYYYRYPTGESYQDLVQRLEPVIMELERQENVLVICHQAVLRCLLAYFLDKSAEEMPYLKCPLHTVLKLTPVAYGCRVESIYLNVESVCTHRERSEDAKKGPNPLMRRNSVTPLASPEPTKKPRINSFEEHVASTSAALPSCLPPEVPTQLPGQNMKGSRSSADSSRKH
Nature of the experiment: 2-Kase assay and kinetic analysis (enzyme-coupled). The note with it: for Inhibition (type): Lineweaver-Burk analysis; for IC50: PFKFB3 2-Kase activity; for Ki: steady state inhibition against Fru-6-P; for PFKFB3 inhibition at twice the IC50: twice the IC50 for PFKFB3 (N4A = 6 µM, YN1 = 1.3 µM). Type of experiment: biochemical. Here is the method:
To determine steady-state initial reaction rates, the 2-Kase reactions were performed first and the Fru-2,6-BP produced was measured by a conventional enzyme-coupled kinetics assay as described previously, [36]. Initial rates of decrease in absorbance (Abs) at 340 nm were corrected with the rate of the control reaction in which no Fru-2,6-BP was present. Negative controls were carried out in the absence of enzyme and positive controls indicate the reaction in the presence of enzyme without inhibitor compounds. […] IC50 values were determined in quadruplicate. For the kinetic studies, concentrations of one of substrate and inhibitor were varied and decrease in absorbance at 340 nm was measured. The inhibition patterns were analyzed using the program written by Cleland, in which Ki is the dissociation constants for the inhibitor from enzyme-inhibitor complex. For Selectivity studies, the 2-Kase assays were performed first and the F-2,6-P2 produced was measured by an enzyme coupled kinetics assay as described above. The His6-tagged PFKFB isoforms, PFKFB1, PFKFB2, and PFKFB4 were expressed in Escherichia coli C41(DE3) and purified using Ni-NTA affinity columns.

The next experiment deals with T2, PFKFB1 (Homo sapiens, UniProt P16118).
T2 construct: His6; made in house; host or cells: Escherichia coli C41(DE3)
T2 sequence (P16118 whole entry): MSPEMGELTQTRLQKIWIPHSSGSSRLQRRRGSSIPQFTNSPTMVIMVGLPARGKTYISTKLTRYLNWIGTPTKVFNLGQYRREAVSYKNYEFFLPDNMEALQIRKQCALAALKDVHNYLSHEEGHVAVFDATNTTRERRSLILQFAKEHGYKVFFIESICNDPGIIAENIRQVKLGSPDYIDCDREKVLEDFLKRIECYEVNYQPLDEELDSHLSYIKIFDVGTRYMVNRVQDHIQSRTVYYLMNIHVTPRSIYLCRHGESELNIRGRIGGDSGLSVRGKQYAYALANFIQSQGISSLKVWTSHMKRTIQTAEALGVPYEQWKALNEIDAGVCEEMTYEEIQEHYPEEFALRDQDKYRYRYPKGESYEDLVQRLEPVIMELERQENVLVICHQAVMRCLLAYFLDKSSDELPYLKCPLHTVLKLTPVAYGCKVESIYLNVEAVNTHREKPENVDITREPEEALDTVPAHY
Nature of the experiment: 2-Kase assay, isoform selectivity. The note with it: N4A = 6 µM, YN1 = 1.3 µM. The format is biochemical. Here is the method: (§1) To determine steady-state initial reaction rates, the 2-Kase reactions were performed first and the Fru-2,6-BP produced was measured by a conventional enzyme-coupled kinetics assay as described previously, [36]. Initial rates of decrease in absorbance (Abs) at 340 nm were corrected with the rate of the control reaction in which no Fru-2,6-BP was present. Negative controls were carried out in the absence of enzyme and positive controls indicate the reaction in the presence of enzyme without inhibitor compounds. The percentage of Inhibitory activity was calculated according to the formula: % inhibition = 100×[1−(Absnegativecontrol−Abscompound)/(Absnegativecontrol−Abspositivecontrol)]. IC50 values were determined in quadruplicate. For the kinetic studies, concentrations of one of substrate and inhibitor were varied and decrease in absorbance at 340 nm was measured. The inhibition patterns were analyzed using the program written by Cleland, in which Ki is the dissociation constants for the inhibitor from enzyme-inhibitor complex. For Selectivity studies, the 2-Kase assays were performed first and the F-2,6-P2 produced was measured by an enzyme coupled kinetics assay as described above. The His6-tagged PFKFB isoforms, PFKFB1, PFKFB2, and PFKFB4 were expressed in Escherichia coli C41(DE3) and purified using Ni-NTA affinity columns.

Another experiment concerns the target T3, PFKFB2 (Homo sapiens, UniProt O60825).
T3 construct: His6; made in house; host or cells: Escherichia coli C41(DE3)
Nature of the experiment: 2-Kase assay, isoform selectivity. Type of experiment: biochemical. The note with it: N4A = 6 µM, YN1 = 1.3 µM. Here is the method: as §1

A further experiment deals with T4, PFKFB4 (Homo sapiens, UniProt Q16877).
T4 construct: His6; made in house; host or cells: Escherichia coli C41(DE3)
T4 sequence (Q16877 whole entry): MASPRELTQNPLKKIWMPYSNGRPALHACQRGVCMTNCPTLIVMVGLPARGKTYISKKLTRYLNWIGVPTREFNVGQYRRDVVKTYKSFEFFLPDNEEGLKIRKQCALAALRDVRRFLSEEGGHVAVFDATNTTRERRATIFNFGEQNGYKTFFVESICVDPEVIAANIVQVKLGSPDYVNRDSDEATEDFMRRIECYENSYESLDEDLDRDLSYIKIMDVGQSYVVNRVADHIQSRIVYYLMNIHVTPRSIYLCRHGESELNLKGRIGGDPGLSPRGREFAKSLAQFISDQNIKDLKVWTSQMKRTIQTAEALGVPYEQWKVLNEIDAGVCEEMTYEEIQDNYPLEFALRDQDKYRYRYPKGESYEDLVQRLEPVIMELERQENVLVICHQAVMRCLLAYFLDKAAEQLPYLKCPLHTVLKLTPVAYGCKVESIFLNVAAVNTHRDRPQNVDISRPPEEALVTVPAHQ
Nature of the experiment: 2-Kase assay, isoform selectivity. The note with it: N4A = 6 µM, YN1 = 1.3 µM. The format is biochemical. Here is the method: as §1

Experiment [1] relates to HeLa cells. Nature of the experiment: Cellular Fru-2,6-BP level determination. The format is cell-based, human. The note with it: 25 µM. Here is the method:
(§2) HeLa cells were plated at a density of 2.5×10^5 in a 6-well plate in DMEM containing 10% FCS. The media were replaced with fresh DMEM containing either vehicle (dimethyl sulfoxide) or 25 µM of inhibitor the following day. After 0, 4, 8, 12, 24, or 48 hours of incubation with each inhibitor, media samples were collected for measuring the lactate secretion levels using a lactate oxidase-based assay kit (Sigma-Aldrich) and the lactate concentration was normalized to the total cellular protein concentration. The Fru-2,6-BP level was determined with collected cells at times of 0, 4,8,12,24, or 48 hours after the treatment, using the method described previously.

For experiment [2], the system named is HeLa cells. Nature of the experiment: Lactate secretion (lactate oxidase-based assay kit). Type of experiment: cell-based, human. The note with it: 25 µM. Here is the method:
as §2

The next experiment concerns HeLa and T47D cells. In words: Cell growth inhibition (XTT assay or trypan blue counting). The format is cell-based, human. The note with it: for Reduction in cell proliferation: 25 µM, human adenocarcinoma cells, compared to unexposed cells; for GI50: Homo sapiens, 36 hours incubation, inhibitor concentration for 50% of vehicle-treated cell growth. Here is the method: (§3) Cell growth inhibition was determined by an XTT-based in-vitro toxicology assay (Sigma-Aldrich) or trypan blue staining. Cells were plated at a density of 3.5×10^4 per well in a 24-well plate in DMEM containing 10% FCS. These cells were allowed to attach for 24 hours, and the media were replaced with fresh media containing either vehicle (dimethyl sulfoxide) or appropriate concentrations of test compounds. After 36 hours of incubation with either vehicle or compounds, cells were trypsinized and cell viability was determined by the trypan blue exclusion assay using a hemacytometer. For the XTT assay, cells were seeded into 96-well cell culture plates at a density of 0.6×10^4 per well. After the appropriate treatment described above, cells were incubated with 0.1 mg/ml of 2,3-bis(2-methoxy-4-nitro-5-sulfophenyl)-5-[(phenylamino)carbonyl]-2H-tetrazolium hydroxide (XTT) for 4 hours and then cell number was determined by the absorbance at 470 nm, which is proportional to the number of cells that remained attached to the plate. GI50s were calculated as the inhibitor concentration needed for 50% of vehicle-treated cell growth. The appearance of apoptotic or necrotic cells was determined by flow cytometric analysis of cells double stained with Annexin V-FITC and propidium iodide (PI). Apoptotic and necrotic cells were distinguished on the basis of double-labeling for Annexin V-FITC (Sigma-Aldrich) and PI, a membrane-impermeable DNA stain. Floating and freshly trypsinized cells were pooled, washed twice in binding buffer, and processed following manufacturer's instructions. The fluorescence of samples were analyzed by flow cytometry (FACSCalibur®, Becton Dickinson Immunocytometry, San Jose, CA) using the CellQuest (BD Bioscience, Immunocytometry Systems, San Jose, CA, USA) software.

For experiment [3], the system named is HeLa cells. In words: Soft agar colony formation. Type of experiment: cell-based, human. The note with it: 3 weeks; for Soft agar colony formation: HeLa cells, 25, 50 and 100 µM; for inhibition at 25 µM: Homo sapiens, 504 h, HeLa cells. Here is the method:
For HeLa cell colony formation was determined by soft agar assay. Cells ([…]) were mixed in DMEM medium containing 0.35% agarose and varying concentrations of N4A or YN1. Then the cell mixture was added on a layer of 0.6% concentration of bottom agar in 24 well plates and allowed to grow for three weeks at 37°Cunder 5% CO2. Fresh medium containing the inhibitors or vehicle (DMSO) was changed every four days. Colonies of 50 cells or more were counted after three weeks. The experiments were repeated at least five times.

Experiment [4] concerns HeLa cells. Nature of the experiment: Flow cytometric analysis of cell death (Annexin V-FITC / PI). Type of experiment: cell-based, human. Here is the method:
as §3
For orientation: A flow cytometer gives signals particle by particle.

T3 sequence (O60825 whole entry): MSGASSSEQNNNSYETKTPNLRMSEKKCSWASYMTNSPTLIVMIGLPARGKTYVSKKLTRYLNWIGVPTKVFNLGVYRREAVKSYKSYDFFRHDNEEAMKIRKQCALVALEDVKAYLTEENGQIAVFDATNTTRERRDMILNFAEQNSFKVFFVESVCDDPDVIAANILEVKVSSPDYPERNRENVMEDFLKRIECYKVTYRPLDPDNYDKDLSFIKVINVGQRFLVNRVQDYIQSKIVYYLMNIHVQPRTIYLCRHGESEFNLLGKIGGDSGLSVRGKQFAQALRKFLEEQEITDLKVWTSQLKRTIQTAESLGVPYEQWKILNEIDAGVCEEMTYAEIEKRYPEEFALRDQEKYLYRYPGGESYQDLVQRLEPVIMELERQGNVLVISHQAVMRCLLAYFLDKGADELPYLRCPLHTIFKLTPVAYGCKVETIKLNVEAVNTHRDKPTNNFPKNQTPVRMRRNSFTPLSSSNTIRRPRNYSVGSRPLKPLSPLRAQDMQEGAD

For the compound `O=c1c(-c2ccc(O)cc2)coc2c(O)c(O)ccc12` [YN1, 7,8-dihydroxy-3-(4-hydroxyphenyl) chromen-4-one], at human PFKFB3, the “Inhibition (type)” value is listed as “Competitive to Fru-6-P”, the IC50 came out at 670 ± 80 nM, affinity was put at a Ki of 240 ± 30 nM and the “PFKFB3 inhibition at twice the IC50” value is “over 80%”. In addition, at human PFKFB3 (relative to lead N4A), the “Increase in PFKFB3 inhibition compared to N4A” value was 5 fold. For the same compound, the “PFKFB1 inhibition at twice the IC50 for PFKFB3” value on PFKFB1 was “less than 40%”. Besides, the “PFKFB2 inhibition at twice the IC50 for PFKFB3” value on PFKFB2 was “less than 40%”. At PFKFB4, the “PFKFB4 inhibition at twice the IC50 for PFKFB3” value is given as “less than 40%”. Moreover, the “Reduction of Fru-2,6-BP level” value in the experiment on HeLa cells [1] (48-hour exposure) was “over 40%”. Moreover, in the experiment on HeLa cells [1] (8 hour exposure), the “Reduction of Fru-2,6-BP level” value is given as “approximately 20%”. For the same compound, the “Decrease in lactate secretions” value in the experiment on HeLa cells [2] is “greater than 30%”. Also, in the experiment with HeLa and T47D cells, the “Reduction in cell proliferation” value is “over 90%” and the GI50 amounted to 8200 ± 800 nM. In addition, in the experiment on HeLa cells [3], the “Soft agar colony formation” value is “significantly inhibited colony formation” and the inhibition at 25 µM came to 79%. In addition, the “Type of cell death induced” value in the experiment with HeLa cells [4] (25 µM) is listed as “prone to apoptosis”. Moreover, the “Type of cell death induced” value in the experiment with HeLa cells [4] (50 µM) was “death by necrosis was significantly increased”. Also, the “Type of cell death induced” value in the experiment with HeLa cells [4] (Annexin V / PI) was “induced both apoptotic and necrotic cell death”.

Regarding `CCOC(=O)c1cc2ccc(O)cc2oc1=O` [YZ9, ethyl 7-hydroxy-2-oxochromene-3-carboxylate], in the experiment on HeLa and T47D cells, the GI50 was found to be 2700 ± 200 nM.

As to `O=c1cc(-c2ccc(O)cc2)oc2c(O)c(O)c(O)c(O)c12` [N4A, 5,6,7,8-tetrahydroxy-2-(4-hydroxyphenyl) chromen-4-one], the “Effect of Tween-20 on PFKFB3 inhibition” value at human PFKFB3 (10 µM compound, in the presence of 0.1% Tween-20) is given as “not affected”. This compound also came in with an inhibition at 10 µM against human PFKFB3 (10 µM compound, substrate-saturating conditions) greater than 65%. Besides, at human PFKFB3, the “Inhibition (type)” value is given as “competitive inhibitor against Fru-6-P; also recorded: Competitive to Fru-6-P”, 2970 ± 160 nM corresponded to half-maximal inhibition (IC50), the Ki was 1290 ± 260 nM and the “PFKFB3 inhibition at twice the IC50” value is recorded as “over 80%”. Also, the “PFKFB1 inhibition at twice the IC50 for PFKFB3” value at PFKFB1 is reported as “less than 50%”. Besides, the “PFKFB2 inhibition at twice the IC50 for PFKFB3” value at PFKFB2 is “less than 50%”. For the same compound, on PFKFB4, the “PFKFB4 inhibition at twice the IC50 for PFKFB3” value was “less than 50%”. Moreover, the “Reduction of Fru-2,6-BP level” value in the experiment with HeLa cells [1] (48-hour exposure) is “over 40%”. For the same compound, the “Reduction of Fru-2,6-BP level” value with HeLa cells [1] (8 hour exposure) was “approximately 20%”. In addition, in the experiment with HeLa cells [2], the “Decrease in lactate secretions” value is “greater than 30%”. Also, in the experiment with HeLa and T47D cells, the “Reduction in cell proliferation” value was determined as 70% and it took 14200 ± 1500 nM to inhibit growth by half (GI50). In the experiment on HeLa cells [3], the “Soft agar colony formation” value is listed as “significantly inhibited colony formation” and 25 µM produced 64% inhibition. The “Type of cell death induced” value in the experiment on HeLa cells [4] (25 µM) is given as “prone to apoptosis”. In the experiment on HeLa cells [4] (50 µM), the “Type of cell death induced” value was “death by necrosis was significantly increased”. The “Type of cell death induced” value in the experiment with HeLa cells [4] (Annexin V / PI) was “induced both apoptotic and necrotic cell death”.
